Assay results taken from ChEMBL document CHEMBL1201862, “PubChem BioAssay data set” (2004).
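Dose response: 5 concentrations. Exposure: 48 h. Format: 96-well plates. Endpoint: linear interpolation; highest concentration if not reached. At the GI50, growth is halved.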 The source made the active and inactive calls. Cut-off read from the data, not from the text of the source: active = GI50 up to about 1.1 µM and inactive = higher. Where a SMILES comes first, the peptide text is derived from it. The star is where a group is joined. Cbz = O=C(OCc1ccccc1)*

Legend:
Test in all cases: NCI-60 cell line screen, 48 h
EKVX = system: EKVX
HT-29 = system: HT-29
SR = system: SR
NCI-H23 = system: NCI-H23
Hs-578T = system: Hs-578T
A498 = system: A498
T47D = system: T47D
MDA-N = system: MDA-N
786-0 = system: 786-0
ACHN = system: ACHN
MCF7 = system: MCF7
HCC 2998 = system: HCC 2998
SK-MEL-5 = system: SK-MEL-5
UACC-62 = system: UACC-62
NCI/ADR-RES = system: NCI/ADR-RES
IGROV-1 = system: IGROV-1
RPMI-8226 = system: RPMI-8226
HL-60 = system: HL-60
DU-145 = system: DU-145
MDA-MB-435 = system: MDA-MB-435

Measured: GI50

CSc1nc(NC2OCC(OC(C)=O)C(OC(C)=O)C2OC(C)=O)c(/N=C\C=N\c2c(NC3OCC(OC(C)=O)C(OC(C)=O)C3OC(C)=O)nc(SC)[nH]c2=O)c(=O)[nH]1 (stereo not given)
inactive: EKVX > 86.9 µM | HT-29 > 100 µM | SR > 100 µM | NCI-H23 > 91 µM | Hs-578T 42 µM | A498 > 100 µM | T47D 89.7 µM | MDA-N > 100 µM | 786-0 30.1 µM | ACHN > 67.8 µM | MCF7 46.5 µM | HCC 2998 > 100 µM | SK-MEL-5 > 100 µM | UACC-62 > 100 µM | NCI/ADR-RES 34.3 µM | IGROV-1 > 93.1 µM | RPMI-8226 > 100 µM | HL-60 > 100 µM | DU-145 > 100 µM | MDA-MB-435 > 100 µM

CCOC(=O)CCC(NC(=O)C(Cc1ccccc1)NC(=O)OCc1ccccc1)C(=O)OCC (stereo not drawn) (Cbz-Phe-Glu(OEt)-OEt; configuration not given here)
inactive: EKVX 20.4 µM | HT-29 20.2 µM | SR 27 µM | NCI-H23 17 µM | Hs-578T 14.8 µM | A498 21.2 µM | T47D 16.2 µM | MDA-N 17.2 µM | 786-0 18.1 µM | ACHN 17.4 µM | MCF7 19.2 µM | HCC 2998 17.7 µM | SK-MEL-5 15.5 µM | UACC-62 17.9 µM | NCI/ADR-RES 18.2 µM | IGROV-1 18.1 µM | RPMI-8226 35 µM | HL-60 20.1 µM | DU-145 6.58 µM | MDA-MB-435 18.3 µM
